Data published in ChEMBL document CHEMBL5131515, “Identification of Pyridinyltriazine Derivatives as Potent panFGFR Inhibitors against Gatekeeper Mutants for Overcoming Drug Resistance” (J Med Chem, 2022).
pIC50: −log10 of the molar value.

Key:
KMS-11 = test: Antiproliferative activity against human KMS-11 cells harboring FGFR3 Y373C mutant assessed as cell growth inhibition by CellTiter-Glo assay; assay type: functional
[1] = molecular target: Fibroblast growth factor receptor 4 (Homo sapiens, UniProt P22455); test: Inhibition of wild-type FGFR4 (unknown origin) by radiometric kinase activity assay
BaF3 [2] = test: cells; assay type: functional; settings: Mus musculus
[3] = molecular target: Fibroblast growth factor receptor 3 (Homo sapiens, UniProt P22607, K650E)
Fibroblast growth factor receptor 3 (Homo sapiens, UniProt P22607, K650E), sequence (P22607 23-806 K650E limits assumed): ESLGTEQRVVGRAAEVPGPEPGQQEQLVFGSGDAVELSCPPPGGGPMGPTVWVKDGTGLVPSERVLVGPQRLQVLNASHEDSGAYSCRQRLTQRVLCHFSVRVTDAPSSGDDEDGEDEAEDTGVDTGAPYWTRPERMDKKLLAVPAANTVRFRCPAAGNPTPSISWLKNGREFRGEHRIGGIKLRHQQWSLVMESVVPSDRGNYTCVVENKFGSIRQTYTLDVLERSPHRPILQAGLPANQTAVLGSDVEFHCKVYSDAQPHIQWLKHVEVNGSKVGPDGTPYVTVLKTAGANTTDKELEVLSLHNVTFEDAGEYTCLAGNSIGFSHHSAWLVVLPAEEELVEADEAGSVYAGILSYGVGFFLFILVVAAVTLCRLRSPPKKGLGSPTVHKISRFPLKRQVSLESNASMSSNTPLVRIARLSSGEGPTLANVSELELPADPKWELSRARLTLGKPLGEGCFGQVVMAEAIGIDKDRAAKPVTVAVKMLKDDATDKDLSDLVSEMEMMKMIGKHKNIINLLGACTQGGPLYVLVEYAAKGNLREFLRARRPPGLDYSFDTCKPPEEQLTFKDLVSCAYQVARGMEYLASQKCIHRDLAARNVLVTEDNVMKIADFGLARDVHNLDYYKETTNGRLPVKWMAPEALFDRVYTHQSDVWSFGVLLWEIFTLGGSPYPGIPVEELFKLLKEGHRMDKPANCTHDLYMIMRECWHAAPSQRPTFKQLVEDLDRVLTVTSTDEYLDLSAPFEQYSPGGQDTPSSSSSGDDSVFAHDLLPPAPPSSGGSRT

[4] = Stability in mouse liver microsomes assessed as parent compound remaining at 1 uM incubated for 30 mins; assay type: ADME, Microsome; settings: read-out: Stability
[5] = molecular target: Fibroblast growth factor receptor 2 (Homo sapiens, UniProt P21802, V564F)
Description: Inhibition of FGFR2 V564F mutant (unknown origin) by radiometric kinase activity assay

[6] = Stability in human liver microsomes assessed as parent compound remaining at 1 uM incubated for 30 mins; assay type: ADME, Microsome; settings: read-out: Stability
CYP2C19 = CYP2C19 (Homo sapiens, UniProt P33261); test: Inhibition of CYP2C19 (unknown origin) assessed as remaining activity at 10 uM relative to control; assay type: ADME; settings: read-out: Activity
[7] = Toxicity in BALB/c mouse xenografted with human AN3-CA cells assessed as body weight loss at 20 to 40 mg/kg, po qd for 15 days measured once every 2 days; assay type: organism-based; settings: in vivo, 360 h, dose 20-40 mg/kg, time 15 day
BaF3 [8] = test: Antiproliferative activity against mouse BaF3 cells harboring TEL-FGFR4 N535K mutant assessed as cell growth inhibition by CellTiter-Glo assay; assay type: functional
[9] = molecular target: Fibroblast growth factor receptor 2 (Homo sapiens, UniProt P21802); test: Inhibition of wild-type FGFR2 (unknown origin) by radiometric kinase activity assay
[10] = Stability in dog liver microsomes assessed as parent compound remaining at 1 uM incubated for 30 mins; assay type: ADME, Canis lupus familiaris, Microsome; settings: read-out: Stability
BaF3 [11] = test: Antiproliferative activity against mouse BaF3 cells harboring TEL-FGFR4 V550E mutant assessed as cell growth inhibition by CellTiter-Glo assay; assay type: functional
[12] = Stability in rat liver microsomes assessed as parent compound remaining at 1 uM incubated for 30 mins; assay type: ADME, Microsome; settings: read-out: Stability
[13] = molecular target: Fibroblast growth factor receptor 2 (Homo sapiens, UniProt P21802, N549H)
CYP1A2 = molecular target: T1, CYP1A2 (Homo sapiens, UniProt P05177); test: Inhibition of CYP1A2 (unknown origin) assessed as remaining activity at 10 uM relative to control; assay type: ADME; settings: read-out: Activity
T1 sequence (P05177 whole entry): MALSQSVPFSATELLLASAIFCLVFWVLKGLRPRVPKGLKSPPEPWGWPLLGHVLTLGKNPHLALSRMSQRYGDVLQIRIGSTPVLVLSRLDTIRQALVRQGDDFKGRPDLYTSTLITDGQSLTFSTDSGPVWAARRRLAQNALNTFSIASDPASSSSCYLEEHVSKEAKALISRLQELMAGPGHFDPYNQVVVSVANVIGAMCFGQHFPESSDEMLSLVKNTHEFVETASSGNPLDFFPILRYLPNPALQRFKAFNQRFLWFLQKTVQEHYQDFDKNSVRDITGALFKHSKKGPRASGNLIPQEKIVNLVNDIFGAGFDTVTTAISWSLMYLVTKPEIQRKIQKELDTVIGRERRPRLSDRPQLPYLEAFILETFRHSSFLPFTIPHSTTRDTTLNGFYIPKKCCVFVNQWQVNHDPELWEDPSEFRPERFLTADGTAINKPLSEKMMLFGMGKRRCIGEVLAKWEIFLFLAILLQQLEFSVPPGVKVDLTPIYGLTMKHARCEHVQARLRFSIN

CYP2D6 = CYP2D6 (Homo sapiens, UniProt P10635); test: Inhibition of CYP2D6 (unknown origin) assessed as remaining activity at 10 uM relative to control; assay type: ADME; settings: read-out: Activity
CYP2D6, sequence (P10635 whole entry): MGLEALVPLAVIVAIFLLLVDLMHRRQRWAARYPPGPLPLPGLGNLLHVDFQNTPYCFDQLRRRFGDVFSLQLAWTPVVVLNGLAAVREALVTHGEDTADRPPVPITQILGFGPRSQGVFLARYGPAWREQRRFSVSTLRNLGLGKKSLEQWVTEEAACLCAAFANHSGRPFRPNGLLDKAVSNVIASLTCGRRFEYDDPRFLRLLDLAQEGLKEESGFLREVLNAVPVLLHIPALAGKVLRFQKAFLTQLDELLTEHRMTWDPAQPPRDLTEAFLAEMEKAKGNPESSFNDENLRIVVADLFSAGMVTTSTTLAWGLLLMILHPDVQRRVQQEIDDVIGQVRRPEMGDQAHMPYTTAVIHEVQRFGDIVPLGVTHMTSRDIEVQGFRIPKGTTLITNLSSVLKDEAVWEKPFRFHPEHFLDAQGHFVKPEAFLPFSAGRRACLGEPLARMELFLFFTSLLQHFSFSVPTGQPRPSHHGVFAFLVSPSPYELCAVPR

AN3-CA [14] = test: Antiproliferative activity against human AN3-CA cells harboring FGFR2 K310R/N549K mutant assessed as cell growth inhibition by CellTiter-Glo assay; assay type: functional
[15] = Antiproliferative activity against mouse BaF3 cells assessed as cell growth inhibition by CellTiter-Glo assay; settings: BaF3 cells
[16] = molecular target: Fibroblast growth factor receptor 3 (Homo sapiens, UniProt P22607, V555M)
J82 = test: Antiproliferative activity against human J82 cells harboring FGFR3 K652E mutant assessed as cell growth inhibition by CellTiter-Glo assay; assay type: functional
[17] = molecular target: Fibroblast growth factor receptor 3 (Homo sapiens, UniProt P22607, K650M)
Fibroblast growth factor receptor 3 (Homo sapiens, UniProt P22607, K650M), sequence (P22607 23-806 K650M limits assumed): as the sequence (P22607 23-806 K650E limits assumed) above, with E628M counted along it

[18] = molecular target: Fibroblast growth factor receptor 3 (Homo sapiens, UniProt P22607); test: Inhibition of wild-type FGFR3 (unknown origin) by radiometric kinase activity assay
Fibroblast growth factor receptor 3 (Homo sapiens, UniProt P22607), sequence (P22607 whole entry): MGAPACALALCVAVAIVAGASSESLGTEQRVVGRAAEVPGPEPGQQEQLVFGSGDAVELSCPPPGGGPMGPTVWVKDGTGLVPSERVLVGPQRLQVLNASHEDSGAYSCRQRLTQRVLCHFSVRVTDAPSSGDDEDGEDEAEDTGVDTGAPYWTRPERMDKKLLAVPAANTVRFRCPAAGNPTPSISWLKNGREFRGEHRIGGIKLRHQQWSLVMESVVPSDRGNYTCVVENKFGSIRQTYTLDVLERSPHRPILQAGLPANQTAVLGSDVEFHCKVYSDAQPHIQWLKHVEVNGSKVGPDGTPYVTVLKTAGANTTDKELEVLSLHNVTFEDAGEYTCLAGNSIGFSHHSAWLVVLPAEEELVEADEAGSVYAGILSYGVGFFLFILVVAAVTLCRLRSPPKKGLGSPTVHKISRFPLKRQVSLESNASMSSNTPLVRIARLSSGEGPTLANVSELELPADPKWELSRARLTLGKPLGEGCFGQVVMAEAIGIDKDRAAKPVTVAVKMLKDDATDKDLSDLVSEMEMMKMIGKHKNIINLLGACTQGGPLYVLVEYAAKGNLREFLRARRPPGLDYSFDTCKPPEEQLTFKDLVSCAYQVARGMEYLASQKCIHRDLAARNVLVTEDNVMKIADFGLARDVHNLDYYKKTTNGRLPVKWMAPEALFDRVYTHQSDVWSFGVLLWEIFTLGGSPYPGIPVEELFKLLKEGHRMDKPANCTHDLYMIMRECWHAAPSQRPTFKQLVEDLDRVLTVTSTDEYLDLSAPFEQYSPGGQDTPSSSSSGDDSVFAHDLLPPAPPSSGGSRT

[19] = Oral bioavailability in mouse at 10 mg/kg; assay type: ADME, organism-based; settings: in vivo
BaF3 [20] = test: Antiproliferative activity against mouse BaF3 cells harboring TEL-FGFR3 assessed as cell growth inhibition by CellTiter-Glo assay; assay type: functional
CYP2C9 = CYP2C9 (Homo sapiens, UniProt P11712); test: Inhibition of CYP2C9 (unknown origin) assessed as remaining activity at 10 uM relative to control; assay type: ADME; settings: read-out: Activity
CYP3A4 = CYP3A4 (Homo sapiens, UniProt P08684); test: Inhibition of CYP3A4 (unknown origin) assessed as remaining activity at 10 uM relative to control; assay type: ADME; settings: read-out: Activity
CYP3A4, sequence (P08684 whole entry): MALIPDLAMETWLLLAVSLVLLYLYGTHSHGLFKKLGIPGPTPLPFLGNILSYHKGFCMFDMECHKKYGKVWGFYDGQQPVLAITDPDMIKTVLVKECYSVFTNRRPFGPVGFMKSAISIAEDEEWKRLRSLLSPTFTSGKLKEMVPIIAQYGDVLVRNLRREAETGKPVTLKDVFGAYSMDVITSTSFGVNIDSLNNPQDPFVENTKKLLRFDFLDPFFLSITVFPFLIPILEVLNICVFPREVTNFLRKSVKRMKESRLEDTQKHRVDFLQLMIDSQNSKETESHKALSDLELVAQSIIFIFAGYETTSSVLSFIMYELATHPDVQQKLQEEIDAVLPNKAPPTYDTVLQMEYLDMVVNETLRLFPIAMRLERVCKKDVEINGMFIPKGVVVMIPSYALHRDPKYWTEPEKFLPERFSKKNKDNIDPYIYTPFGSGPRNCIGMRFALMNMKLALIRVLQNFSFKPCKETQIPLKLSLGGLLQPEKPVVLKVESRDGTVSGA

BaF3 [21] = test: Antitumor activity against mouse BaF3 cells harboring TEL-V555M-FGFR3 mutant xenografted in BALB/c mouse assessed as tumor mean volume at 30 mg/kg, ip qd for 15 days measured once every 2 days (reference value: 100%); assay type: functional; settings: time 15 day
[22] = test system: Fibroblast growth factor receptor 2 (Homo sapiens), P21802 [V564F]; test: Inhibition of FGFR2 V564F mutant (unknown origin) at 10 uM by radiometric kinase activity assay relative to control
Fibroblast growth factor receptor 2 (Homo sapiens), P21802 [V564F], sequence (P21802 whole entry V564F): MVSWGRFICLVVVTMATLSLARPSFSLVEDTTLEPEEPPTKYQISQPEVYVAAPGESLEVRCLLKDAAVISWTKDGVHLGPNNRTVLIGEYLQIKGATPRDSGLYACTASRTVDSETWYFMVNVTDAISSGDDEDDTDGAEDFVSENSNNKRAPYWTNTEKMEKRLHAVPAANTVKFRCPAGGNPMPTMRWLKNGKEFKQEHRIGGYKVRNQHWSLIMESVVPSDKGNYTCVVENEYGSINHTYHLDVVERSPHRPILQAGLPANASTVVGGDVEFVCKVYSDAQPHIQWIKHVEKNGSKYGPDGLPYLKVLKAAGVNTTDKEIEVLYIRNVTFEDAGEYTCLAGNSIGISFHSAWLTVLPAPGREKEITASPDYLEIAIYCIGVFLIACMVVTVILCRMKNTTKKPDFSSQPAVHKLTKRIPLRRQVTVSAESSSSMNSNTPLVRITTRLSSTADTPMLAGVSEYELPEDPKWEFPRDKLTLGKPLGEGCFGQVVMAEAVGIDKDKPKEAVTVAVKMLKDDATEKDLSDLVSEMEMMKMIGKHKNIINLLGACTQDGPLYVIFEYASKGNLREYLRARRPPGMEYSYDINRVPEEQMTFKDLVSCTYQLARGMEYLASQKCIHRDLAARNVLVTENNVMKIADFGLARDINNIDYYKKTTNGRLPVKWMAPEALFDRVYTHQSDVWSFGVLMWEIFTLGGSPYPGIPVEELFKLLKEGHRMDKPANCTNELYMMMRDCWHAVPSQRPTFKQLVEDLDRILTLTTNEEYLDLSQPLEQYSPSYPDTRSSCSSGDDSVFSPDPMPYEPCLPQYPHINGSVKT

BaF3 [23] = test: Antitumor activity against mouse BaF3 cells harboring TEL-V555M-FGFR3 mutant xenografted in BALB/c mouse assessed as tumor mean volume at 30 mg/kg, po qd for 15 days measured once every 2 days (reference value: 100%); assay type: functional; settings: time 15 day
BaF3 [24] = test: Antitumor activity against mouse BaF3 cells harboring TEL-V555M-FGFR3 mutant xenografted in BALB/c mouse assessed as tumor growth inhibition at 30 mg/kg, ip qd for 15 days measured once every 2 days; assay type: functional; settings: BaF3, 360 h, time 15 day
AN3-CA [25] = test: Antitumor activity against human AN3-CA cells xenografted in BALB/c mouse assessed as tumor mean volume at 10 mg/kg, po qd for 15 days measured once every 2 days (reference value: 100%); assay type: functional; settings: time 15 day
[26] = test system: Fibroblast growth factor receptor 3 (Homo sapiens), P22607 [V555M]; test: Inhibition of FGFR3 V555M mutant (unknown origin) at 10 uM by radiometric kinase activity assay relative to control
Fibroblast growth factor receptor 3 (Homo sapiens), P22607 [V555M], sequence (P22607 whole entry V555M): as the sequence (P22607 whole entry) above, with V555M counted along it

[27] = test system: Fibroblast growth factor receptor 2 (Homo sapiens), P21802 [N549H]; test: Inhibition of FGFR2 N549H mutant (unknown origin) at 10 uM by radiometric kinase activity assay relative to control
BaF3 [28] = test: Growth inhibition of mouse BaF3 cells harboring TEL-FGFR3 V555M mutant incubated for 72 hrs by Alamar blue assay; assay type: functional

SMILES	pIC50 [1]	GI50 (BaF3 [2])	pIC50 [3]	remaining at 0.5 h, 1 µM [4]	pIC50 [5]	remaining at 0.5 h, 1 µM [6]	activity at 10 µM (CYP2C19)	GI50 (BaF3 [8])	GI50 (BaF3 [11])	activity at 10 µM (CYP1A2)	activity at 10 µM (CYP2D6)	pIC50 [18]	GI50 (BaF3 [20])	activity at 10 µM (CYP2C9)	activity at 10 µM (CYP3A4)	inhibition [22]	GI50 (KMS-11)	GI50 (AN3-CA [14])	GI50 [15]	GI50 (J82)	further results
COc1cc(OC)c(Cl)c(Nc2ncccc2-c2ncnc(Nc3ccc(N4CCOCC4)nc3OC)n2)c1Cl		> 5000 nM										5.77	> 5000 nM			< 50%	> 50000 nM	> 50000 nM	> 5000 nM	31000 nM	inhibition [26]: < 50%; inhibition [27]: < 50%
COc1ccccc1Nc1ncnc(-c2cccnc2Nc2c(Cl)c(OC)cc(OC)c2Cl)n1		> 5000 nM										6.56	4120 nM			< 50%	> 50000 nM	5550 nM	> 5000 nM	31200 nM	inhibition [26]: < 50%; inhibition [27]: < 50%
COc1cc(N2CCOCC2)ccc1Nc1ncnc(-c2cccnc2Nc2c(Cl)c(OC)cc(OC)c2Cl)n1		> 5000 nM										5.81	> 5000 nM			< 50%	> 50000 nM	> 50000 nM	> 5000 nM	31200 nM	inhibition [26]: < 50%; inhibition [27]: < 50%
Cc1nc2ccc(-n3ncc(C(=O)c4cc5ccccc5[nH]4)c3N)cc2[nH]1 [FGFR INHIBITOR DEBIO 1347]																					GI50 (BaF3 [28]): 8240 nM

More lines, in order of falling GI50 (BaF3 [2]), values ahead:

pIC50 [1]	GI50 (BaF3 [2])	pIC50 [3]	remaining at 0.5 h, 1 µM [4]	pIC50 [5]	remaining at 0.5 h, 1 µM [6]	activity at 10 µM (CYP2C19)	GI50 (BaF3 [8])	GI50 (BaF3 [11])	activity at 10 µM (CYP1A2)	activity at 10 µM (CYP2D6)	pIC50 [18]	GI50 (BaF3 [20])	activity at 10 µM (CYP2C9)	activity at 10 µM (CYP3A4)	inhibition [22]	SMILES	GI50 (KMS-11)	GI50 (AN3-CA [14])	GI50 [15]	GI50 (J82)	further results
	2600 nM		22.3%		77%	64.9%	> 5000 nM	4000 nM	77.3%	94.9%		5 nM	88.4%	83%	< 50%	CCN1CCN(c2ccc(Nc3cc(N(C)C(=O)Nc4c(Cl)c(OC)cc(OC)c4Cl)ncn3)cc2)CC1 [INFIGRATINIB]	220 nM	39 nM	> 5000 nM	3340 nM	Activity (BaF3 [21]): 44.74%; Activity (BaF3 [23]): 49%; inhibition in vivo at 30 mg/kg (BaF3 [24]): 60.2%; remaining at 0.5 h, 1 µM [10]: 8.1%; remaining at 0.5 h, 1 µM [12]: 10.9%; Activity (AN3-CA [25]): 14.1%
7.58	1020 nM	> 9.30	62.1%	6.14	62.6%	51%	3650 nM	2590 nM	72.8%	> 100%	9.01	10 nM	89.9%	44.1%		COc1cc(OC)c(Cl)c(Nc2ncccc2-c2ncnc(Nc3cnn(C4CCNCC4)c3)n2)c1Cl	111 nM	29 nM	> 5000 nM	977 nM	Activity [7]: Non-Toxic; pIC50 [9]: > 9.30; remaining at 0.5 h, 1 µM [10]: 66.9%; remaining at 0.5 h, 1 µM [12]: 65.4%; pIC50 [13]: 8.60; pIC50 [16]: 6.57; pIC50 [17]: 7.96; bioavailability [19]: 13.2%
7.57	733 nM	> 9.30	44.8%	6.44	10.2%	31.8%	520 nM	354 nM	72.6%	77.3%	9.22	5 nM	62.3%	13.3%		COc1cc(OC)c(Cl)c(Nc2ncccc2-c2ncnc(Nc3ccc(N4C[C@@H](C)N[C@@H](C)C4)cc3)n2)c1Cl	237 nM	15 nM	1530 nM	428 nM	pIC50 [9]: > 9.30; remaining at 0.5 h, 1 µM [10]: 19%; remaining at 0.5 h, 1 µM [12]: 11.7%; pIC50 [13]: 9.28; pIC50 [16]: 6.93; pIC50 [17]: 7.58
8.14	183 nM	> 9.30	11.5%	6.72	21.8%	44.6%	1680 nM	749 nM	75.9%	81%	> 9.30	5 nM	79.1%	17.6%		COc1cc(OC)c(Cl)c(Nc2ncccc2-c2ncnc(Nc3cnn(C4CCN(C(C)C)CC4)c3)n2)c1Cl	34 nM	21 nM	> 5000 nM	547 nM	pIC50 [9]: > 9.30; pIC50 [13]: > 9.30; pIC50 [16]: 7.65; pIC50 [17]: 8.32
